Measured values published in patent US20040166062A1, “Ablation therapy using chemical shift magnetic resonance imaging” (priority 2003, published 2004).

How the values were obtained:
[1] = test system: hepatocellular carcinoma less than about 3 cm; conditions: randomized, controlled trial, patients with hepatocellular carcinoma less than about 3 cm; cited from earlier work
[2] = test system: unresectable hepatocellular carcinoma
Procedure: After obtaining standard T1 and T2-weighted imaging, an MR-compatible 10 cm long, 22-gauge needle was advanced into the lesions. Baseline imaging was performed using a water-suppressed two-dimensional spoiled gradient-echo pulse sequence. […] The scanning parameters were: 30 degree flip angle, TE=4.2 msec, TR=34 msec, 34-38 cm field-of-view, ±16 kHz receiver bandwidth, 256×128 matrix, and 7 mm slice thickness.

calf liver = calf liver ex vivo, 8 cc glacial acetic acid injected by hand over 2 minutes
Excerpt: An MRI-compatible, 10 cm, 22-gauge needle was inserted into a calf liver that was placed in a transmit/receive birdcage coil. […] The offset frequency of the chemical saturation pulse was set at 170 Hz. […] A complete 3D data set was acquired every 15 seconds. Scanning parameters were: 20 degree flip angle, TE=4.2 msec, TR=34 msec, matrix=256×128×4, 1 signal average, and 32 kHz receiver bandwidth. A total of 15 temporal phases was acquired, each with approximately 15 second time resolution.
The time after injection appears in seconds in the lower left corner of each frame.

lung tumor = test system: lung tumor
Excerpt: (§1) An MR-compatible needle is advanced into the lesions to introduce the ablation agent.

breast tumor = test system: breast tumor
Excerpt: as §1

prostate tumor = test system: prostate tumor
Excerpt: as §1

renal tumor = test system: renal tumor
Excerpt: as §1

multifocal hepatoma = conditions: Patient 3, post-injection, signal low in intensity
hepatic tumor = assay: Paper example: CS-MRI guided chemical ablation of a hepatic tumor; conditions: for outcome of chemical ablation therapy: hepatic tumor, slow injection under CS-MRI
Procedure: as §1
(§2) A patient presents for ethanol ablation therapy of a hepatic tumor. The patient is prepared by placement on the MRI scanner platform and the spectrometer is calibrated for ^13C-labeled ethanol using standard T1 and T2-weighted imaging. An MR-compatible needle is advanced into the lesions to introduce the ablation agent. Dynamic two-dimensional, chemical shift MRI is performed during the slow injection of ^13C-labeled ethanol. The distribution of ^13C-labeled ethanol is then directly visualized using chemical shift MRI.
as §2, with “hot saline” for “ethanol”, “^23Na-labeled saline” for “^13C-labeled ethanol”, “^23Na-labeled saline.” for “^13C-labeled ethanol.”

CC(=O)O [acetic acid]
effectiveness of ablation compared with ethanol ablation [1]: more effective than ethanol ablation
size of the lesion versus distribution of the agent ([2]; Patient 2): closely matches
extra-hepatic extravasation of the agent ([2]; in vivo): No extra-hepatic extravasation of the agent is observed
distribution of the agent at the injection site on CS-MRI (calf liver): focal accumulation of acetic acid adjacent to the needle tip
outcome of chemical ablation therapy (lung tumor): successful in destroying the tumor
outcome of chemical ablation therapy (breast tumor): successful in destroying the tumor
outcome of chemical ablation therapy (prostate tumor): successful in destroying the tumor
outcome of chemical ablation therapy (renal tumor): successful in destroying the tumor

CCO [ethanol]
distribution of the agent on CS-MRI (multifocal hepatoma): focal signal accumulation due to ethanol injection is observed

^13C-labeled acetic acid
outcome of chemical ablation therapy (hepatic tumor): successful in destroying the tumor

^13C-labeled ethanol
outcome of chemical ablation therapy (hepatic tumor): successful in destroying the tumor
damage to surrounding tissues (hepatic tumor; in vivo): without damage to surrounding tissues
